From BindingDB's records for doi:10.1021/ml200223s (2011) come the findings set out here.

The experiment can be described thus: Antagonist activity at CRTH2 receptor in human whole blood assessed as inhibition of PGD2-induced eosinophil shape change incubated for 20 mins prior to PGD2-challenge measured after 10 mins by flow cytometry.

Each structure is given as a SMILES string.

For `CCCCC(=O)N(Cc1ccc2c(c1)OCCO2)c1cc(F)cc(-c2nnn[nH]2)c1`, the IC50 is 40 nM.
